Among the data in patent US20210177828A1, “TAM FAMILY KINASE /AND CSF1R KINASE INHIBITOR AND USE THEREOF” (Nanjing Transthera Biosciences Co., Ltd., priority 2018, published 2021) are IC50 values, retold here.

In one assay the target is T1, Mer (h) (Homo sapiens, UniProt Q12866).
T1 sequence (Q12866 21-999): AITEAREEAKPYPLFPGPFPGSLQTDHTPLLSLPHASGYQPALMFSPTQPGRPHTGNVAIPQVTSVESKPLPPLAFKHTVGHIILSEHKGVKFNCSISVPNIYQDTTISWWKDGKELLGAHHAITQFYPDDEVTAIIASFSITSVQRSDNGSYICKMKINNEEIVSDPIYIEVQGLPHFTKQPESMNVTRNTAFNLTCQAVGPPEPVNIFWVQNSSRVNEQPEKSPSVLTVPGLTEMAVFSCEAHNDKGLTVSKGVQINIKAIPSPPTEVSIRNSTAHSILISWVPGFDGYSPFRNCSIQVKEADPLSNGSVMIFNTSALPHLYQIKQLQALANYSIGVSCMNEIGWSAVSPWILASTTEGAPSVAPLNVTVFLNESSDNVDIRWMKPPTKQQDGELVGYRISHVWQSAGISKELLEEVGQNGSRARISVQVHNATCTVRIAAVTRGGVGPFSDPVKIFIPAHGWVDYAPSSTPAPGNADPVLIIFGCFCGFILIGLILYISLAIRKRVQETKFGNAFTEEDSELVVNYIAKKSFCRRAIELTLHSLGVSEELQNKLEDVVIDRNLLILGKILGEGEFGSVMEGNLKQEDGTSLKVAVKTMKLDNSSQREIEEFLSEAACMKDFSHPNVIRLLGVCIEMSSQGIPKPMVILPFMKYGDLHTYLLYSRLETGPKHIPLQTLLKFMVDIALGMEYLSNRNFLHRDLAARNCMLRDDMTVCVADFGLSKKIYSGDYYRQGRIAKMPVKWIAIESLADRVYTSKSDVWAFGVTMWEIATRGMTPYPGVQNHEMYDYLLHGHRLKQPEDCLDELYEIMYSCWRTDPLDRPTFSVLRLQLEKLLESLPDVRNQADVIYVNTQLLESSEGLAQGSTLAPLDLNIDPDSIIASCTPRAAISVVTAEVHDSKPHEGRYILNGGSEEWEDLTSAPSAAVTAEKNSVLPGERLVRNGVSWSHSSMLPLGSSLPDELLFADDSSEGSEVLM
Put plainly: Enzymatic activity assay, Mer (h), [γ-33P]-ATP filter assay. The assay is classed as biochemical. The conditions noted are these: 10 μM ATP, 40 min room temperature; read-out: Inhibitory activity IC50 Mer(h). As to the method:
(§1) Compounds were each dissolved in 100% DMSO to prepare stock solutions with a maximum concentration of 500 μM.
(§2) Compound working solutions (50×) were prepared by diluting a compound stock solution to a final concentration of 500, 150, 50, 15, 5, 1.5, 0.5, 0.15 and 0.05 μM.
An enzyme solution with a final concentration of 3.1 nM was prepared by dissolving Mer (h) enzyme in a mixture of 8 mM MOPS (pH 7.0), 0.2 mM EDTA, 30 mM NaCl and 250 μM GGMEDIYFEFMGGKKK. A Mg/ATP mixture of 10 mM magnesium acetate and 10 μM [γ-^33P]-ATP was used to activate the enzymatic reaction.
(§3) A compound working solution was added to a 384-well plate, with final concentrations of 10,000, 3,000, 1,000, 300, 100, 30, 10, 3 and 1 nM, and then different enzymatic reaction solutions prepared according to the above conditions were added. The reaction solutions were incubated at room temperature for 40 min, and then 0.5% phosphoric acid solutions were added to terminate the reaction. 10 μL of the reaction solution was added dropwise to P30 filter paper, washed 4 times with a 0.425% phosphoric acid solution and once with methanol, and then placed in a scintillation counter for detection. Gray analysis was performed on the results with Image J software, and IC50 values were calculated with GraphPad 5.0 software.

The target in another assay is T2, Axl (h) (Homo sapiens, UniProt P30530).
T2 sequence (P30530 26-894): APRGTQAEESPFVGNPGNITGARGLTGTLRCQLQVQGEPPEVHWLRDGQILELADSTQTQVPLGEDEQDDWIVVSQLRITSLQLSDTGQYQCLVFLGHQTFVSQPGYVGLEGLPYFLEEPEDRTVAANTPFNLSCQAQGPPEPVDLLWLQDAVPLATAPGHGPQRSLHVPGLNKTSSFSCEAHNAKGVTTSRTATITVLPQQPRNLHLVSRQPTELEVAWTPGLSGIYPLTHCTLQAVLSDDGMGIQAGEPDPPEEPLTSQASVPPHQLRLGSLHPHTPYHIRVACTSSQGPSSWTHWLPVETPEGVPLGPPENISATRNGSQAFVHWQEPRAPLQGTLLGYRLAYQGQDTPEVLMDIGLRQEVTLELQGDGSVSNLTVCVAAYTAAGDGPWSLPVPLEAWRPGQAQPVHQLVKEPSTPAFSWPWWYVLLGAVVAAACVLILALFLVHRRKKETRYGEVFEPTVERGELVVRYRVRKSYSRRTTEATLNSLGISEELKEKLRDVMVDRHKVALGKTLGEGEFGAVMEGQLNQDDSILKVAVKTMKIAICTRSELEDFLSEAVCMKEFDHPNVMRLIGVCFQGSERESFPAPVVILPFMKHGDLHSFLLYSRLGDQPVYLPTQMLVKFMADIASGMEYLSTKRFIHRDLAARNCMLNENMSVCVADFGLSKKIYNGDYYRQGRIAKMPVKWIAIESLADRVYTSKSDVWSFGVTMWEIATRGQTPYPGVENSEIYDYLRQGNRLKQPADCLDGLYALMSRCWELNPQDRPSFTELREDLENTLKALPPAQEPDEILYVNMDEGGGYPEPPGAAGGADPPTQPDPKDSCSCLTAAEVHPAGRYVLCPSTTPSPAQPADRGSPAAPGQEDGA
Put plainly: Enzymatic activity assay, Axl (h), [γ-33P]-ATP filter assay. In kind it is biochemical. The conditions noted are these: 10 μM ATP, 40 min room temperature; read-out: Inhibitory activity IC50 Axl(h). On the procedure: as §1, §2
An enzyme solution with a final concentration of 1.7 nM was prepared by dissolving Axl (h) enzyme in a mixture of 8 mM MOPS (pH 7.0), 0.2 mM EDTA and 250 μM KKSRGDYMTMQIG. A Mg/ATP mixture of 10 mM magnesium acetate and 10 μM [γ-^33P]-ATP was used to activate the enzymatic reaction.
as §3

On to `COc1cc2nccc(Oc3ccc(NC(=O)c4cc(CC5CCOCC5)cn(-c5ccc(C)cc5)c4=O)nc3)c2cc1OC` [Compound 26, N-(5-((6,7-dimethoxyquinolin-4-yl)oxy)pyridin-2-yl)-oxo-5-((tetrahydro-2H-pyran-4-yl)methyl)-1-(p-tolyl)-1,2-dihydropyridin-3-carboxamide], for which the half-inhibitory concentration (IC50) on Mer (h) amounted to 8 nM; at Axl (h), 20 nM.

In the case of `COc1cc2nccc(Oc3ccc(NC(=O)c4cn(C5CCOCC5)cc(-c5ccc(F)cc5)c4=O)nc3)c2cc1OC` [Compound 27, N-(5-((6,7-dimethoxyquinolin-4-yl)oxy)pyridin-2-yl)-5-(4-fluorophenyl)-4-oxo-1-(tetrahydro-2H-pyran-4-yl)-1,4-dihydropyridin-3-carboxamide], the IC50 was found to be 7 nM at Mer (h) and 13 nM at Axl (h).

Consider `COc1cc2nccc(Oc3ccc(NC(=O)c4nn(C5CCOCC5)cc(-c5ccc(C)cc5)c4=O)cc3F)c2cc1OC` [Compound 28], for which the IC50 at Mer (h) was 1 nM; at Axl (h) it was 23 nM.

Regarding `Cc1ccc(-c2cn(C3CCOCC3)nc(C(=O)Nc3ccc(Oc4ccnc5cc6c(cc45)OCO6)cn3)c2=O)cc1` [Compound 29, N-(5-([1,3]dioxolo[4,5-g]quinolin-8-yloxy)pyridin-2-yl)-4-oxo-1-(tetrahydro-2H-pyran-4-yl)-5-(p-tolyl)-1,4-dihydropyridazin-3-carboxamide], the half-maximal inhibitory concentration (IC50) at Mer (h) amounted to 48 nM; at Axl (h) it was 28 nM.

In the case of `Cc1ccc(-c2cn(C3CCOCC3)nc(C(=O)Nc3ccc(Oc4ccnc5cc6c(cc45)OCCO6)cn3)c2=O)cc1` [Compound 30, N-(5-((2,3-dihydro-[1,4]dioxino[2,3-g]quinolin-9-yl)oxy)pyridin-2-yl)-4-oxo-1-(tetrahydro-2H-pyran-4-yl)-5-(p-tolyl)-1,4-dihydropyridazin-3-carboxamide], the figures for the IC50 on Mer (h) and at Axl (h) were 20 nM and 39 nM, respectively.

`COc1cc2nccc(Oc3cnc(NC(=O)c4cn(C5CCOCC5)cc(-c5ccc(F)cc5)c4=O)nc3)c2cc1OC` [Compound 31, N-(5-((6,7-dimethoxyquinolin-4-yl)oxy)pyrimidin-2-yl)-5-(4-fluorophenyl)-4-oxo-1-(tetrahydro-2H-pyran-4-yl)-1,4-dihydropyridin-3-carboxamide]: the IC50 on Mer (h) came to 8 nM; on Axl (h), 15 nM.

Take `COc1cc2nccc(Oc3ccc(NC(=O)c4cc(CC5CCOCC5)cn(-c5ccc(F)cc5)c4=O)nc3)c2cc1OC` [Compound 32, N-(5-((6,7-dimethoxyquinolin-4-yl)oxy)pyridin-2-yl)-1-(4-fluorophenyl)-2-oxo-5-((tetrahydro-2H-pyran-4-yl)methy 1)-1,2-dihydropyridin-3-carboxamide]: the concentration for half-maximal inhibition (IC50) on Mer (h) was found to be 12 nM; on Axl (h), 31 nM.

For `COc1cc2nccc(Oc3cnc(NC(=O)c4nn(C5CCOCC5)cc(-c5ccc(F)cc5)c4=O)nc3)c2cc1OC` [Compound 33, N-(5-((6,7-dimethoxyquinolin-4-yl)oxy)pyrimidin-2-yl)-5-(4-fluorophenyl)-4-oxo-1-(tetrahydro-2H-pyran-4-yl)-1,4-dihydropyridazin-3-carboxamide], the figures for the half-maximal inhibitory concentration (IC50) at Mer (h) and on Axl (h) were 6 nM and 27 nM, respectively.

Regarding `COc1cc2nccc(Oc3ccc(NC(=O)c4nn(C5CCOCC5)cc(-c5ccc(F)cc5)c4=O)nc3)c2cc1OC` [Compound 34, N-(5-((6,7-dimethoxyquinolin-4-yl)oxy)pyridin-2-yl)-5-(4-fluorophenyl)-4-oxo-1-(tetrahydro-2H-pyran-4-yl)-1,4-dihydropyridazin-3-carboxamide], the IC50 at Mer (h) came to 2 nM; on Axl (h) it was 29 nM.
